Patent US6355633B1, “Aryl sulfonic acids and derivatives as FSH antagonists” (American Home Products Corporation, priority 1999, dated 2002)

Legend:
FSH receptor [1] = target: T1, FSH receptor (Homo sapiens, UniProt P23945); assay: FSH Receptor Radioligand Membrane Binding Standard Pharmacological Test Procedure; set-up: expressed in transfected cells; details: [125I]FSH binding to membranes of CHO cells stably transfected with the human FSH receptor
T1 sequence (P23945 18-695): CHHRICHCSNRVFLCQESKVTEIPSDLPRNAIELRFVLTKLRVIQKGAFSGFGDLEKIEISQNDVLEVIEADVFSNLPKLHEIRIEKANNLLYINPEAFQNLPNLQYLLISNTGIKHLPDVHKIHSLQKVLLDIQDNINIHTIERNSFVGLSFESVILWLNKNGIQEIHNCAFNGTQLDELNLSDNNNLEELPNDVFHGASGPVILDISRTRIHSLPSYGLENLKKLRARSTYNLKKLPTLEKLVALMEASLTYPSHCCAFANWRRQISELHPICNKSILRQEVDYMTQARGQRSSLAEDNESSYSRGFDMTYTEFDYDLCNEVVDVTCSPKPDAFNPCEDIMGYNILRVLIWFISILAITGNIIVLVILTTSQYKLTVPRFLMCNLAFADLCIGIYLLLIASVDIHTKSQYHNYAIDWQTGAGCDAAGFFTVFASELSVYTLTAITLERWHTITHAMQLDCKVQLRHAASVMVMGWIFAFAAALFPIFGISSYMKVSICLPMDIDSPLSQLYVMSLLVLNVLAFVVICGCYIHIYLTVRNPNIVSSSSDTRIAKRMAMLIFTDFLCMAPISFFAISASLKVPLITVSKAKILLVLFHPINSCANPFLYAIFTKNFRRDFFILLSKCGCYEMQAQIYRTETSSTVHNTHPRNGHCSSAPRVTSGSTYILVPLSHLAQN
Experimental: FSH Receptor Radioligand Membrane Binding Standard Pharmacological Test Procedure
Membrane Source: Chinese hamster ovarian cells stably transfected with the human FSH receptor were cultured (Ultra CHO medium containing 1% fetal bovine serum and 200 μg/mL G418) in and harvested. Cells were collected by centrifugation and resulting cell pellets were frozen and stored at −70° C.
Membrane Receptor Preparation: Frozen cell pellets were weighed and resuspended in binding buffer to a final concentration of 30 mg wet weight/mL. Cell suspension for each pellet was homogenized using a Tempest homogenizer (setting=1; 5 strokes; VirTis, Gardiner, N.Y.). Cell homogenates were pooled and 35 mL aliquots were transferred to 50-mL polypropylene copolymer centrifuge tubes (Nalgene cat. #3110-0500). Tubes were spun at 12,000 rpm (SS34 rotor) for 12 min at 4° C. Resulting supernatant fractions were discarded and pellets were stored at −70° C. until use. On the day of the procedure, 35 mL binding buffer was added to each tube (35 mL membrane suspension was sufficient for three 96-well plates). The membrane pellet was dispersed by trituration using a pipet. The resulting suspension wass homogenized using a Tempest homogenizer (3 strokes at setting=1).
Receptor Binding Test procedure: Membrane homogenate (100 μl) was added to each well of a 96-well microtiter plate (Falcon # 3077). All reactions were tested in triplicate. Test compound solutions (50 μl) were added to the designated wells. Total bound counts were determined by adding 50 μl binding buffer containing 4% DMSO to the designated wells. […] Plates were pre-incubated for 15 min at room temperature on shaking platform (setting=3). After preincubation [^125I]FSH (50 μl) was added to each well and plates were incubated for 2 h at room temperature on shaking platform (setting=3). The reaction was terminated by transfer of the membrane preparation to glass fiber filters (Blue Mat #11740; 102×256 mm; Skatron Instruments, Sterling, Va.) that had been pretreated with 1% BSA in wash buffer for at least 30 min, but not longer than 1 h using a 96-well microtiter vacuum harvester (Skatron Instruments). The membrane preparation was washed with 5 cycles of ice-cold wash buffer (200 μl/well/cycle) followed by a pulse wash of 3 cycles (100 μl/well/cycle). The total wash volume per well was 1.3 mL. The filters were dried by a 10 sec aspiration. Disks corresponding to each well of the microtiter plate were punched out of the filter mat into 12×75 mm polypropylene tubes. The radioactivity present on each of the disks was measured using a gamma counter.
An FSH dose response curve (0.001, 0.01, 0.1, 1, 10, and 100 nM) was generated for each binding procedure to monitor procedure to procedrue variability.
FSH Receptor Radioligand Membrane Binding Procedure Buffers and Reagents
Binding buffer is prepared in 11 volumes containing Trizma-HCl, MgCl2, CaCl2 and sodium azide, the pH was adjusted to 7.2 with NaOH, and stored at 4° C. until use. BSA was weighed out on the day of the procedure and added to the amount of buffer required for the procedure (usually 150 mL). The protease inhibitors were prepared as 1 mg/mL stocks (aprotinin, leupeptin, and phosphoramidon were prepared in binding buffer without BSA and protease inhibitors; pepstatin and PMSF were prepared in methanol), stored in 1 mL aliquots at −70° C., and added to the binding buffer on the day of the procedure.
Wash buffer was prepared containing Trizma-HCl, MgCl2 and EDTA, the pH was adjusted to 7.2 with NaOH, and stored at 4° C.
Filter Soak Buffer (pH 7.2)
BSA was weighed out on the day of the procedure and added to 300 mL of wash buffer. The filter soak buffer was used for two procedures before being discarded.
A portion of the stock solution was diluted in binding buffer to a concentration of 200 pM.
FSH Solution for Determining Non-specific Binding: Purified human FSH was prepared as a 100 μM solution in binding buffer without protease inhibitors. […]

FSH receptor [2] = target: T1, FSH receptor; assay: In Vitro Bio-test Procedure of Agonists and Antagonists to the FSH Receptor (cAMP accumulation in CHO-3D2 cells); assay type: cell-based; set-up: expressed in transfected cells; host or cells: CHO-3D2 cells
Experimental: In Vitro Bio-test Procedure of Agonists and Antagonists to the FSH Receptor
The compounds were subsequently diluted in sterile procedure medium (Optimem (Gibco/BRL, Grand Island, N.Y.)/0.1% BSA) prior to use in the bio-procedure.
Preparation of CHO-3D2 Cells; CHO-3D2 cells were plated into 96-well Nunc tissue culture plates at a density of 30,000 cells/well in DMEM/F12 medium (Gibco/BRL, Grand Island, N.Y.) supplemented with 5% Fetal Bovine Serum (Hyclone, Fetal Clone II), 2 mM L-glutamine and penicillin/streptomycin (100 U/mL). Cells were plated one day prior to performing the bio-procedure.
Procedure: On the day of procedure, the wells were washed two times with 100 ul/well of pre-warmed (37 deg C.) procedure medium. After aspirating the second wash, an additional 100 ul of procedure medium was added to each well and the cells pre-incubated for 30-45 minutes at 37 deg C. In a humidified incubator with 5%CO2/95% air. The cells were then challenged with varying dilutions of the test substance(s) in a 50 ul total incubation volume in procedure medium for 30 minutes at 37 deg C. in the humidified incubator. The challenge was terminated by the addition of 50 ul of 0.2 N HCl to each well. CAMP accumulation in the medium was measured by radioimmunoassay.
Test Groups: In the 96-well format, the plate is organized into 12 columns each containing 8 rows of wells. The plate was split in half to test a single compound in both agonist and antagonist mode on the same plate.
For agonist mode, compounds were tested using 5 different concentrations in a dose-response paradigm using one column as a control (challenge medium alone) in agonist mode.
The 96-well format allowed for the capability to test 4 columns of compound, using one of the remaining columns for negative control (challenge medium alone) and the other remaining column for ampositive control (ED20 of FSH alone).
The doses chosen to test each compound were extrapolated from the initial screening process (receptor binding data). Along with the test compounds, FSH was run in agonist mode using doses ranging from 0.1 ng/mL-1000 ng/mL as a postive control. Cytotoxicity of the compounds were screened by treating cells with the highest concentration of each compound used in the cAMP procedure for 30 minutes followed by washing of the cells 2 times with 100 ul PBS. The cells were then incubated for 5 min at 37 deg C. in the presence of 50 ug/mL Fluorescein diacetate and 20 ug/mL Propidium iodide in 100 ul PBS. The cells were washed two times with 100 ul PBS followed by examination of the cells under a fluorescence microscope using a 490 nm filter. Viable cells stained green throughout, while dead cells had red fluorescent nuclei.
Analysis of Results: cAMP accumulation was expressed as fmol/mL. […] Data were analyzed statistically by analysis of variance and significant differences between treatments and control determined by Dunnett's test. In antagonist mode, a Duncan's test was used.
Reference Compounds: Test compounds were compared to the effect of purified or recombinant human FSH.

| SMILES | IC50 (FSH receptor [1]) | IC50 (FSH receptor [2]) | IC50 (FSH receptor [2]; antagonist mode, inhibition of hFSH-induced cAMP accumulation (ED20 of FSH, […]), CHO-3D2 cells) |
| --- | --- | --- | --- |
| COc1ccc(C(=O)Nc2ccc(/C=C/c3ccc(NC(=O)c4ccc(OC)c(S(=O)(=O)NCCN5CCOCC5)c4)cc3S(=O)(=O)O)c(S(=O)(=O)O)c2)cc1S(=O)(=O)NCCN1CCOCC1 [Example 30n] | 1.8 µM | 5.5 µM | – |
| COCCN(CCOC)S(=O)(=O)c1cc(C(=O)Nc2ccc(/C=C/c3ccc(NC(=O)c4ccc(OC)c(S(=O)(=O)N(CCOC)CCOC)c4)cc3S(=O)(=O)O)c(S(=O)(=O)O)c2)ccc1OC [Example 30o, 2,2′-[(E)-1,2-Ethenediyl]bis[5-[[3-[[bis(2-methoxyethyl)amino]sulfonyl]-4-methoxybenzoyl]amino]benzenesulfonic Acid]] | 2.4 µM | 6.2 µM | – |
| COc1ccc(C(=O)Nc2ccc(CCc3ccc(NC(=O)c4ccc(OC)c(S(=O)(=O)N5CCOCC5)c4)cc3S(=O)(=O)O)c(S(=O)(=O)O)c2)cc1S(=O)(=O)N1CCOCC1 [Example 30p, 2,2′-(1,2-Ethanediyl)bis[5-[[4-methoxy-3-(4-morpholinylsulfonyl)benzoyl]amino]benzenesulfonic Acid]] | 2.5 µM | 11 µM | – |
| C=CCS(=O)(=O)c1ccc(C(=O)Nc2ccc(/C=C/c3ccc(NC(=O)c4ccc(S(=O)(=O)CC=C)cc4)cc3S(=O)(=O)O)c(S(=O)(=O)O)c2)cc1 [Example 32a] | 3.5 µM | 2.3 µM | – |
| CS(=O)(=O)c1ccc(C(=O)Nc2ccc(/C=C/c3ccc(NC(=O)c4ccc(S(C)(=O)=O)s4)cc3S(=O)(=O)O)c(S(=O)(=O)O)c2)s1 [Example 32b, 2,2′-[(E)-1,2-Ethenediyl]bis[5-[[[5-(methylsulfonyl)-2-thienyl]carbonyl]amino]benzenesulfonic Acid]] | 3.2 µM | 2.6 µM | – |
| COC(=O)C=CCS(=O)(=O)c1cccc(C(=O)Nc2ccc(C=Cc3ccc(NC(=O)c4cccc(S(=O)(=O)CC=CC(=O)OC)c4)cc3S(=O)(=O)O)c(S(=O)(=O)O)c2)c1 [Example 32e, 4-{3-[4-(2-{4-{3-(3-Methoxycarbonyl-prop-2-ene-1-sulfonyl)-benzoylamino]-2-sulfo-phenyl}-vinyl)-3-sulfo-phenylcarbomoyl]-benzenesulfonyl}-but-2-enoic Acid, Methyl Ester] | 4.9 µM | – | 9 µM |
| CCSc1ccc(C(=O)Nc2ccc(/C=C/c3ccc(NC(=O)c4ccc(SCC)c(S(=O)(=O)N5CCOCC5)c4)cc3S(=O)(=O)O)c(S(=O)(=O)O)c2)cc1S(=O)(=O)N1CCOCC1 [Example 32i, 2,2′-[(E)-1,2-Ethenediyl]bis[5-[[4-(ethylthio)-3-(4-morpholinylsulfonyl)benzoyl]amino]benzenesulfonic Acid]] | 3.7 µM | 4.9 µM | – |
| COCCOCCSc1ccc(C(=O)Nc2ccc(/C=C/c3ccc(NC(=O)c4ccc(SCCOCCOC)c(S(=O)(=O)N5CCOCC5)c4)cc3S(=O)(=O)O)c(S(=O)(=O)O)c2)cc1S(=O)(=O)N1CCOCC1 [Example 32o] | 1.5 µM | 1 µM | – |

The remaining lines, values ahead:

| IC50 (FSH receptor [1]) | IC50 (FSH receptor [2]) | IC50 (FSH receptor [2]; antagonist mode, inhibition of hFSH-induced cAMP accumulation (ED20 of FSH, […]), CHO-3D2 cells) | SMILES |
| --- | --- | --- | --- |
| 6.2 µM | 4.5 µM | – | CCN(CC)S(=O)(=O)c1cc(C(=O)Nc2ccc(/C=C/c3ccc(NC(=O)c4ccc(OC)c(S(=O)(=O)N(CC)CC)c4)cc3S(=O)(=O)O)c(S(=O)(=O)O)c2)ccc1OC [Example 33c, 2,2′-[(E)-1,2-Ethenediyl]bis[5-[[3-[(diethylamino)sulfonyl]-4-methoxybenzoyl]amino]benzenesulfonic Acid]] |
| 16 µM | 11 µM | – | COc1ccc(C(=O)Nc2ccc(/C=C/c3ccc(NC(=O)c4ccc(OC)c(S(=O)(=O)N5CCCCCC5)c4)cc3S(=O)(=O)O)c(S(=O)(=O)O)c2)cc1S(=O)(=O)N1CCCCCC1 [Example 33f] |
| 23 µM | 67 µM | – | COc1ccc(C(=O)Nc2ccc(Sc3ccc(NC(=O)c4ccc(OC)c(S(=O)(=O)N5CCOCC5)c4)cc3S(=O)(=O)O)c(S(=O)(=O)O)c2)cc1S(=O)(=O)N1CCOCC1 [Example 33h, 2,2′-Thiobis[5-[[4-methoxy-3-(4-morpholinylsulfonyl)benzoyl]amino]benzenesulfonic Acid]] |
| 5.4 µM | 9.5 µM | – | O=C(O)C=CCS(=O)(=O)c1cccc(C(=O)Nc2ccc(C=Cc3ccc(NC(=O)c4cccc(S(=O)(=O)CC=CC(=O)O)c4)cc3S(=O)(=O)O)c(S(=O)(=O)O)c2)c1 [Example 36c, 4-{3-[4-(2-{4-[3-(3-Carboxy-prop-2-ene-1-sulfonyl)-benzoylamino]-2-sulfo-phenyl}-vinyl)-3-sulfo-phenylcarbomoyl]-benzenesulfonyl}-but-2-enoic Acid] |
